Assays:
Details in all cases: 48 h
[1] = system: NOMO1; test: cell viability relative to DMSO control; higher = less cytotoxic
In short: (§1)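 NOMO1, SEM and P12-Ichikawa leukemia cells spent at least four passages adapting to each medium before use. They were seeded at 500 cells/well (NOMO1, SEM) or 1000 cells/well (P12-Ichikawa) in 5 μl in 1536-well plates and pin-dosed with library compounds in DMSO at 11 threefold steps from 47 μM down to 0.79 nM. After 48 h at 37°C, CellTiter-Glo One luminescence was read. Viability is reported as a percentage of the DMSO wells on each plate, with cell-free wells as background.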

[2] = system: P12-Ichikawa; test: as above
In short: as §1

[3] = system: SEM cells; test: as above
In short: as §1

[4] = system: NOMO1; test: AUC of viability dose-response curve (% viability x log10 dose units); higher = less sensitive
In short: (§2)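 Seeding of medium-adapted leukemia cells was at 500 or 1000 cells/well in 1536-well plates, followed by 48 h at 37°C with library compounds in DMSO at 11 threefold doses from 47 μM to 0.79 nM. CellTiter-Glo One luminescence was normalised per plate to DMSO and cell-free wells and fitted as a four-parameter log-logistic function of log10 dose. Area under the curve was integrated by trapezoidal rule, with curves exceeding full viability scaled and curves failing quality control removed.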

[5] = system: P12-Ichikawa; test: as above
In short: as §2

[6] = system: SEM cells; test: as above
In short: as §2

OC1=CC2=C(C(=C1)O)C(=O)\C=C(/O2)C3=CC=CC=C3
cell viability [%]
Details | [1] | [2] | [3]
HPLM + 10% dialyzed FBS, 0.000781 µM | 106 | 104 | 89.7
HPLM + 10% dialyzed FBS, 0.00234 µM | 106 | 102 | 92.5
HPLM + 10% dialyzed FBS, 0.00702 µM | 103 | 105 | 93
HPLM + 10% dialyzed FBS, 0.0211 µM | 116 | 108 | 107
HPLM + 10% dialyzed FBS, 0.0632 µM | 109 | 110 | 94.5
HPLM + 10% dialyzed FBS, 0.19 µM | 116 | 108 | 112
HPLM + 10% dialyzed FBS, 0.569 µM | 108 | 103 | 94.4
HPLM + 10% dialyzed FBS, 1.71 µM | 118 | 110 | 115
HPLM + 10% dialyzed FBS, 5.12 µM | 121 | 104 | 85
HPLM + 10% dialyzed FBS, 15.4 µM | 93.6 | 77.9 | 61.9
HPLM + 10% dialyzed FBS, 46.1 µM | 20.2 | 3.28 | 8.24
RPMI 5 mM glucose + 10% FBS, 0.000781 µM | 101 | 104 | 88.2
RPMI 5 mM glucose + 10% FBS, 0.00234 µM | 97.8 | 104 | 103
RPMI 5 mM glucose + 10% FBS, 0.00702 µM | 92.1 | 107 | 106
RPMI 5 mM glucose + 10% FBS, 0.0211 µM | 97.5 | 111 | 94.2
RPMI 5 mM glucose + 10% FBS, 0.0632 µM | 100 | 115 | 105
RPMI 5 mM glucose + 10% FBS, 0.19 µM | 108 | 110 | 101
RPMI 5 mM glucose + 10% FBS, 0.569 µM | 92.7 | 101 | 92
RPMI 5 mM glucose + 10% FBS, 1.71 µM | 96.1 | 107 | 104
RPMI 5 mM glucose + 10% FBS, 5.12 µM | 101 | 103 | 77.2
RPMI 5 mM glucose + 10% FBS, 15.4 µM | 105 | 82.9 | 35.8
RPMI 5 mM glucose + 10% FBS, 46.1 µM | 15.6 | 3.34 | 4.9
RPMI 5 mM glucose + 10% dialyzed FBS, 0.000781 µM | 91.9 | 99.5 | 85.8
RPMI 5 mM glucose + 10% dialyzed FBS, 0.00234 µM | 103 | 103 | 96.6
RPMI 5 mM glucose + 10% dialyzed FBS, 0.00702 µM | 106 | 102 | 95.3
RPMI 5 mM glucose + 10% dialyzed FBS, 0.0211 µM | 104 | 99.9 | 91.5
RPMI 5 mM glucose + 10% dialyzed FBS, 0.0632 µM | 115 | 103 | 99.9
RPMI 5 mM glucose + 10% dialyzed FBS, 0.19 µM | 102 | 100 | 97.7
RPMI 5 mM glucose + 10% dialyzed FBS, 0.569 µM | 115 | 114 | 97.3
RPMI 5 mM glucose + 10% dialyzed FBS, 1.71 µM | 112 | 104 | 111
RPMI 5 mM glucose + 10% dialyzed FBS, 5.12 µM | 98.9 | 103 | 94.5
RPMI 5 mM glucose + 10% dialyzed FBS, 15.4 µM | 98.3 | 84.4 | 59.6
RPMI 5 mM glucose + 10% dialyzed FBS, 46.1 µM | 27.6 | 4.92 | 11.9

AUC of viability dose-response curve
Details | [4] | [5] | [6]
HPLM + 10% dialyzed FBS | 450 | 441 | 429
RPMI 5 mM glucose + 10% FBS | 453 | 443 | 410
RPMI 5 mM glucose + 10% dialyzed FBS | 456 | 446 | 423

N=C(NCCCCCCNC(=N)NC(=N)Nc1ccc(Cl)cc1)NC(=N)Nc1ccc(Cl)cc1
cell viability [%]
Details | [1] | [2] | [3]
HPLM + 10% dialyzed FBS, 0.000781 µM | 82 | 89.4 | 95.6
HPLM + 10% dialyzed FBS, 0.00234 µM | 88.2 | 95.2 | 104
HPLM + 10% dialyzed FBS, 0.00702 µM | 100 | 93 | 95.6
HPLM + 10% dialyzed FBS, 0.0211 µM | 90.4 | 95.7 | 95.2
HPLM + 10% dialyzed FBS, 0.0632 µM | 106 | 92.6 | 101
HPLM + 10% dialyzed FBS, 0.19 µM | 111 | 93.3 | 104
HPLM + 10% dialyzed FBS, 0.569 µM | 105 | 95.2 | 104
HPLM + 10% dialyzed FBS, 1.71 µM | 113 | 101 | 93.9
HPLM + 10% dialyzed FBS, 5.12 µM | 89 | 92.9 | 92.2
HPLM + 10% dialyzed FBS, 15.4 µM | 87.6 | 97.9 | 86.8
HPLM + 10% dialyzed FBS, 46.1 µM | 56.5 | 93.8 | 52
RPMI 5 mM glucose + 10% FBS, 0.000781 µM | 75.4 | 83.8 | 98.4
RPMI 5 mM glucose + 10% FBS, 0.00234 µM | 92.9 | 82.8 | 102
RPMI 5 mM glucose + 10% FBS, 0.00702 µM | 79.1 | 92.1 | 104
RPMI 5 mM glucose + 10% FBS, 0.0211 µM | 96.3 | 90.1 | 97.5
RPMI 5 mM glucose + 10% FBS, 0.0632 µM | 96.1 | 93.6 | 93.4
RPMI 5 mM glucose + 10% FBS, 0.19 µM | 85.5 | 97.6 | 107
RPMI 5 mM glucose + 10% FBS, 0.569 µM | 93.2 | 91.4 | 96.4
RPMI 5 mM glucose + 10% FBS, 1.71 µM | 88.5 | 80.2 | 104
RPMI 5 mM glucose + 10% FBS, 5.12 µM | 91.1 | 95.1 | 107
RPMI 5 mM glucose + 10% FBS, 15.4 µM | 87.4 | 81.2 | 97.6
RPMI 5 mM glucose + 10% FBS, 46.1 µM | 30.9 | 56.3 | 68
RPMI 5 mM glucose + 10% dialyzed FBS, 0.000781 µM | 79.5 | 85.4 | 83.6
RPMI 5 mM glucose + 10% dialyzed FBS, 0.00234 µM | 88.9 | 85.3 | 92.9
RPMI 5 mM glucose + 10% dialyzed FBS, 0.00702 µM | 90.6 | 90.4 | 93.4
RPMI 5 mM glucose + 10% dialyzed FBS, 0.0211 µM | 90.5 | 86.9 | 87.9
RPMI 5 mM glucose + 10% dialyzed FBS, 0.0632 µM | 105 | 94.1 | 89.3
RPMI 5 mM glucose + 10% dialyzed FBS, 0.19 µM | 103 | 95.5 | 96.7
RPMI 5 mM glucose + 10% dialyzed FBS, 0.569 µM | 101 | 87.5 | 90.9
RPMI 5 mM glucose + 10% dialyzed FBS, 1.71 µM | 105 | 88.1 | 85.8
RPMI 5 mM glucose + 10% dialyzed FBS, 5.12 µM | 100 | 86 | 103
RPMI 5 mM glucose + 10% dialyzed FBS, 15.4 µM | 85.6 | 89.3 | 80.9
RPMI 5 mM glucose + 10% dialyzed FBS, 46.1 µM | 41.5 | 70.3 | 42.1

AUC of viability dose-response curve
Details | [4] | [5] | [6]
HPLM + 10% dialyzed FBS | 454 | 452 | 453
RPMI 5 mM glucose + 10% FBS | 409 | 416 | 468
RPMI 5 mM glucose + 10% dialyzed FBS | 440 | 419 | 420

COCCCN1CCC(NC(=O)c2cc(Cl)c(N)c3c2OCC3)CC1
cell viability [%]
Details | [1] | [2] | [3]
HPLM + 10% dialyzed FBS, 0.000781 µM | 116 | 114 | 86.8
HPLM + 10% dialyzed FBS, 0.00234 µM | 124 | 124 | 90.1
HPLM + 10% dialyzed FBS, 0.00702 µM | 127 | 127 | 115
HPLM + 10% dialyzed FBS, 0.0211 µM | 119 | 132 | 116
HPLM + 10% dialyzed FBS, 0.0632 µM | 147 | 132 | 129
HPLM + 10% dialyzed FBS, 0.19 µM | 137 | 134 | 123
HPLM + 10% dialyzed FBS, 0.569 µM | 133 | 134 | 114
HPLM + 10% dialyzed FBS, 1.71 µM | 150 | 133 | 119
HPLM + 10% dialyzed FBS, 5.12 µM | 142 | 146 | 147
HPLM + 10% dialyzed FBS, 15.4 µM | 137 | 132 | 123
HPLM + 10% dialyzed FBS, 46.1 µM | 110 | 124 | 114
RPMI 5 mM glucose + 10% FBS, 0.000781 µM | – | – | 110
RPMI 5 mM glucose + 10% FBS, 0.00234 µM | – | – | 115
RPMI 5 mM glucose + 10% FBS, 0.00702 µM | – | – | 116
RPMI 5 mM glucose + 10% FBS, 0.0211 µM | – | – | 122
RPMI 5 mM glucose + 10% FBS, 0.0632 µM | – | – | 149
RPMI 5 mM glucose + 10% FBS, 0.19 µM | – | – | 134
RPMI 5 mM glucose + 10% FBS, 0.569 µM | – | – | 130
RPMI 5 mM glucose + 10% FBS, 1.71 µM | – | – | 114
RPMI 5 mM glucose + 10% FBS, 5.12 µM | – | – | 147
RPMI 5 mM glucose + 10% FBS, 15.4 µM | – | – | 140
RPMI 5 mM glucose + 10% FBS, 46.1 µM | – | – | 111
RPMI 5 mM glucose + 10% dialyzed FBS, 0.000781 µM | – | – | 118
RPMI 5 mM glucose + 10% dialyzed FBS, 0.00234 µM | – | – | 119
RPMI 5 mM glucose + 10% dialyzed FBS, 0.00702 µM | – | – | 127
RPMI 5 mM glucose + 10% dialyzed FBS, 0.0211 µM | – | – | 114
RPMI 5 mM glucose + 10% dialyzed FBS, 0.0632 µM | – | – | 130
RPMI 5 mM glucose + 10% dialyzed FBS, 0.19 µM | – | – | 143
RPMI 5 mM glucose + 10% dialyzed FBS, 0.569 µM | – | – | 116
RPMI 5 mM glucose + 10% dialyzed FBS, 1.71 µM | – | – | 156
RPMI 5 mM glucose + 10% dialyzed FBS, 5.12 µM | – | – | 128
RPMI 5 mM glucose + 10% dialyzed FBS, 15.4 µM | – | – | 143
RPMI 5 mM glucose + 10% dialyzed FBS, 46.1 µM | – | – | 113

AUC of viability dose-response curve
Details | [4] | [5] | [6]
HPLM + 10% dialyzed FBS | 460 | 465 | 453
RPMI 5 mM glucose + 10% FBS | 456 | 467 | 451
RPMI 5 mM glucose + 10% dialyzed FBS | 468 | 473 | 454

— the supplement of paper PMC11451515
